Measurements as given in patent US7632819B1, “Methods and compositions for inhibiting PKC delta cleavage for treatment and prevention of neurodegeneration and apoptosis” (Iowa State University Research Foundation, Inc., priority 2004, dated 2009).
Read-outs that look alike come from different tables or passages of the source. The star is where a group is joined. Cbz = O=C(OCc1ccccc1)*; CH2F = FC*

How the values were obtained:
PKCδ = experiment: Immunoprecipitation kinase assay (histone H1 phosphorylation) in N27 cells; assay type: cell-based, rat; settings: toxin alone
Source text: (§1) Chemicals. Protease cocktail, ATP, protein-A-sepharose, protein-G-sepharose and anti-â-actin antibody were obtained from Sigma-Aldrich (St. Louis, Mo.); mouse tyrosine hydroxylase antibody was purchased from Chemicon (Temecula, Calif.); the rabbit polyclonal antibody for tyrosine hydroxylase was obtained from Calbiochem Bioscience, Inc. (King of Prussia, Pa.); rabbit PKCδ antibody was purchased from Santa Cruz Biotechnology, Inc. (Santa Cruz, Calif.); anti-rabbit and anti-mouse secondary antibodies and the ECL chemiluminescence kit were purchased from Amersham Pharmacia Biotech. (Piscataway, N.J.). Alexa 488 conjugated antirabbit/mouse, Cy3 conjugated anti-rabbit/mouse antibody and Hoechst 33342 were purchased from Molecular Probes, Inc. (Eugene, Oreg.). [ã-32P]ATP was purchased from Perkin Elmer Life Science Products (Boston, Mass.). The Bradford protein assay kit was purchased from Bio-Rad Laboratories (Hercules, Calif.). RPMI, fetal bovine serum, -glutamine, penicillin, and streptomycin were purchased from Invitrogen (Gaithersburg, Md.). Quantity One 4.2.0 software was purchased from Bio-Rad. Design and synthesis of z-DIPD-fmk (SEQ ID NO:5). To develop a cell permeable peptide inhibitor to specifically block PKCδ cleavage, we designed the tetrapeptide Asp-Ile-Pro-Asp (DIPD) (SEQ ID NO:5) corresponding to position 324-327 in rat PKCδ cDNA representing the caspase-3 cleavage site. Since this peptide is directed against the caspase-3 cleavage site of PKCδ, it should prevent the proteolytic cleavage and activation of PKCδ mediated by caspase-3. The custom synthesis of the tetrapeptide Z-Asp(OMe)-Ile-Pro-Asp(OMe)-FMK (SEQ ID NO:5) was performed at MP Biomedicals (Irvine, Calif.), a quality company that specializes in developing cell permeable peptide inhibitors directed against apoptosis cell signaling molecules. Briefly, the synthesis was performed with the reaction of Boc-D(OMe)-OH with MBFM (Magnesium benzyl fluoromalonate) to produce Beta-Keto fluoroester, followed by hydrogenation with Pd/c to produce Boc-D(OMe)FK, which was converted into Tfa salt using trifluoroacetic acid. Coupling of Tfa salt with Z-D(OMe)—I—P—OH in DMF with HOBT, HBTU DIEA and workup produced a crude product which was purified by column chromatography over silica gel. Elution with EtOAC:MeOH 95:5 gave pure fractions which were mixed and dried. Crystallization with EtOAC/Hexane, filtration and drying produced the pure product. Animals. Time-pregnant C57/bL mice were housed under standard conditions: constant temperature (22±1° C.), humidity (relative, 30%) and a 12-h light/dark cycle with free access to food and water. The animals and protocol procedures were approved and supervised by the Committee on Animal Care (COAC) at Iowa State University. Cell culture. […]

caspase-3 [1] = target: T1, caspase-3 (Rattus norvegicus, UniProt P55213); experiment: Caspase-3 activity assay with fluorogenic substrate Ac-DEVD-AFC in treated N27 cells; assay type: cell-based; settings: toxin alone
T1 construct: N27 cells were exposed to either MPP^+ or 6-OHDA in the absence or presence of z-DIPD-fmk; endogenous in cells; host or cells: N27 rat mesencephalic dopaminergic neuronal cells
T1 sequence (P55213 29-175 limits assumed): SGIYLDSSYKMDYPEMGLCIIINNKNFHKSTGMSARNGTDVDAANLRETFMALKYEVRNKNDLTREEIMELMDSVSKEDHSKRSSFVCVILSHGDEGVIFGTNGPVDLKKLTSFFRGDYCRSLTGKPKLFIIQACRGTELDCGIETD
T1 sequence (P55213 176-277 limits assumed): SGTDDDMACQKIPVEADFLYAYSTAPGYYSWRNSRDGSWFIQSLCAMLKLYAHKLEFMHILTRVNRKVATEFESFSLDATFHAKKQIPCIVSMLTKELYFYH
Source text: as §1, with “culture. Rat mesencephalic dopaminergic neuronal (N27) cells were cultured as described earlier (Anantharam et al., 2002). Briefly, cells were grown in RPMI 1640 medium containing 10% fetal bovine serum, 2 mM L-glutamine, 50 units of penicillin, and 50 μg/ml streptomycin. Cells were maintained in a humidified atmosphere of 5% CO2 at 37° C. Primary mesencephalic neuronal cultures were prepared from the ventral mesencephalon of gestational 18-day-old mice embryos as described previously (Yang et al., 2004). Mesencephalic tissues were dissected and maintained in ice-cold Ca2+-free HBSS and then dissociated in HBSS solution containing trypsin-EDTA (0.25%) for 20 min at 37° C.” for “culture.”

N27 cells = settings: for increase in DNA fragmentation compared to untreated cells: toxin alone
Experimental: […] Z is the abbreviation for N-benzyloxycarbonyl. Untreated cells were used as control samples. After the treatment, the cells were collected by trypsinization (Trypsin 0.25%, 1 mM EDTA), centrifuged at 200×g for 5 min, washed with PBS twice, then lysed. The lysate was used for DNA fragmentation assay.
DNA fragmentation assays were performed using a recently developed Cell Death Detection ELISA Plus Assay Kit. This is a fast, highly sensitive and reliable assay for the detection of early changes in apoptotic cell death. After treatments, 20 μl of cell lysate was processed according to the manufacturer's protocol. The assay solution consisted of a mixture of anti-histone biotin and anti-DNA-HRP directed against various histones and antibodies to both single stranded DNA and double stranded DNA, the major constituents of nucleosomes. After 2 hr incubation, unbound components were removed by washing with the incubation buffer supplied with the kit. Quantification of the nucleosomes retained by anti-DNA-HRP in the immunocomplex was determined spectrophotometrically with ABTS (2,2′-azino-di[3-ethoxybenzyl thiazoline sulfonate) as a HRP substrate (supplied with the kit). Measurements were made at 405 nm against an ABTS solution as a blank (reference wave length 490 nm).
(§2) Chemicals. Protease cocktail, ATP, protein-A-sepharose, protein-G-sepharose and anti-â-actin antibody were obtained from Sigma-Aldrich (St. Louis, Mo.); mouse tyrosine hydroxylase antibody was purchased from Chemicon (Temecula, Calif.); the rabbit polyclonal antibody for tyrosine hydroxylase was obtained from Calbiochem Bioscience, Inc. (King of Prussia, Pa.); rabbit PKCδ antibody was purchased from Santa Cruz Biotechnology, Inc. (Santa Cruz, Calif.); anti-rabbit and anti-mouse secondary antibodies and the ECL chemiluminescence kit were purchased from Amersham Pharmacia Biotech. (Piscataway, N.J.). Alexa 488 conjugated antirabbit/mouse, Cy3 conjugated anti-rabbit/mouse antibody and Hoechst 33342 were purchased from Molecular Probes, Inc. (Eugene, Oreg.). [ã-32P]ATP was purchased from Perkin Elmer Life Science Products (Boston, Mass.). The Bradford protein assay kit was purchased from Bio-Rad Laboratories (Hercules, Calif.). RPMI, fetal bovine serum, -glutamine, penicillin, and streptomycin were purchased from Invitrogen (Gaithersburg, Md.). Quantity One 4.2.0 software was purchased from Bio-Rad. Design and synthesis of z-DIPD-fmk (SEQ ID NO:5). To develop a cell permeable peptide inhibitor to specifically block PKCδ cleavage, we designed the tetrapeptide Asp-Ile-Pro-Asp (DIPD) (SEQ ID NO:5) corresponding to position 324-327 in rat PKCδ cDNA representing the caspase-3 cleavage site. Since this peptide is directed against the caspase-3 cleavage site of PKCδ, it should prevent the proteolytic cleavage and activation of PKCδ mediated by caspase-3. The custom synthesis of the tetrapeptide Z-Asp(OMe)-Ile-Pro-Asp(OMe)-FMK (SEQ ID NO:5) was performed at MP Biomedicals (Irvine, Calif.), a quality company that specializes in developing cell permeable peptide inhibitors directed against apoptosis cell signaling molecules. Briefly, the synthesis was performed with the reaction of Boc-D(OMe)-OH with MBFM (Magnesium benzyl fluoromalonate) to produce Beta-Keto fluoroester, followed by hydrogenation with Pd/c to produce Boc-D(OMe)FK, which was converted into Tfa salt using trifluoroacetic acid. Coupling of Tfa salt with Z-D(OMe)—I—P—OH in DMF with HOBT, HBTU DIEA and workup produced a crude product which was purified by column chromatography over silica gel. Elution with EtOAC:MeOH 95:5 gave pure fractions which were mixed and dried. Crystallization with EtOAC/Hexane, filtration and drying produced the pure product. Animals.

[2] = MTT cytotoxicity assay, MPP+- and 6-OHDA-induced cytotoxicity; settings: rat
Source text: as §2, with “Briefly, the synthesis was performed with the reaction of Boc-D(OMe)-OH with MBFM (Magnesium benzyl fluoromalonate) to produce Beta-Keto fluoroester, followed by hydrogenation with Pd/c to produce Boc-D(OMe)FK, which was converted into Tfa salt using trifluoroacetic acid. Coupling of Tfa salt with Z-D(OMe)—I—P—OH in DMF with HOBT, HBTU DIEA and workup produced a crude product which was purified by column chromatography over silica gel. Elution with EtOAC:MeOH 95:5 gave pure fractions which were mixed and dried. Crystallization with EtOAC/Hexane, filtration and drying produced the pure product. Animals.” left out

[3] = tested on: N27 mesencephalic neuronal cells; experiment: as above; settings: N27 cells, 300 μM MPP+ 36 hr, toxin alone
Source text: as §2, with “Briefly, the synthesis was performed with the reaction of Boc-D(OMe)-OH with MBFM (Magnesium benzyl fluoromalonate) to produce Beta-Keto fluoroester, followed by hydrogenation with Pd/c to produce Boc-D(OMe)FK, which was converted into Tfa salt using trifluoroacetic acid. Coupling of Tfa salt with Z-D(OMe)—I—P—OH in DMF with HOBT, HBTU DIEA and workup produced a crude product which was purified by column chromatography over silica gel. Elution with EtOAC:MeOH 95:5 gave pure fractions which were mixed and dried. Crystallization with EtOAC/Hexane, filtration and drying produced the pure product. Animals.” left out

caspase-3 [4] = target: T2, caspase-3 (rat, UniProt P55213 29-277, limits assumed); experiment: cell-based or functional assay
T2 sequence (looked up): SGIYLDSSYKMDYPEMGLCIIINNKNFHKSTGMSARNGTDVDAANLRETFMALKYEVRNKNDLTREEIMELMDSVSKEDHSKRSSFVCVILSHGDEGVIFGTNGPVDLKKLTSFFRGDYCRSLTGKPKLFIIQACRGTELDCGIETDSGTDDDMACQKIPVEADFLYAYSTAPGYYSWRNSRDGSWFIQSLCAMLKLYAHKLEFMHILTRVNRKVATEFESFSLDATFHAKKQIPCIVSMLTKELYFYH

NCCc1cc(O)c(O)cc1O [6-OHDA, 6-hydroxydopamine, reference compound]
increase in PKCδ enzymatic activity over the untreated cells (PKCδ; 100 μM 6-OHDA 24 hr): 235% | increase in caspase-3 enzyme activity (caspase-3 [1]; 100 μM 6-OHDA 24 hr): ~2.5 fold | increase in DNA fragmentation compared to untreated cells (N27 cells; 100 μM 6-OHDA 24 hr): 93% | cytotoxicity at 24 h, 100 μM [2]: > 60%

C[n+]1ccc(-c2ccccc2)cc1 [MPP^+, 1-methyl-4-phenylpyridinium, reference compound]
increase in PKCδ enzymatic activity over the untreated cells (PKCδ; 300 μM MPP+ 36 hr): 333% | increase in caspase-3 enzyme activity (caspase-3 [1]; 300 μM MPP+ 36 hr): ~2.5 fold | increase in DNA fragmentation compared to untreated cells (N27 cells; 300 μM MPP+ 36 hr): 75% | loss of cell viability (MTT) [3]: more than 40%

COC(=O)CC[C@H](NC(=O)[C@H](CC(=O)OC)NC(=O)OCc1ccccc1)C(=O)N[C@H](C(=O)N[C@@H](CC(=O)OC)C(=O)CF)C(C)C [z-DEVD-fmk, Asp-Glu-Val-Asp-FMK, reference compound]
effect on 6-OHDA-induced DNA fragmentation / apoptotic cell death (N27 cells; 100 μM 6-OHDA 24 hr, concentration not stated or dose-response 1-50 μM): dose dependently blocked | IC50 (N27 cells; read-out: IC50, 6-OHDA-induced DNA fragmentation (apoptotic cell death), 100 μM 6-OHDA 24 hr, inhibitor 1-50 μM): 18 µM

B1: Z-Asp(OMe)-Ile-Pro-Asp(OMe)-FMK (N-benzyloxycarbonyl-Asp(OMe)-Ile-Pro-Asp(OMe)-fluoromethyl ketone) (peptide)
peptide: Cbz-D(OMe)IPD(OMe)-CH2F
SMILES: CC[C@H](C)[C@H](NC(=O)[C@H](CC(=O)OC)NC(=O)OCc1ccccc1)C(=O)N1CCC[C@H]1C(=O)N[C@@H](CC(=O)OC)C(=O)CF
IC50 for inhibition of 6-OHDA-induced DNA fragmentation (Cell Death Detection ELISA) in N27 cells (caspase-3 [4]): 6 µM

B2: z-DEVD-fmk (Asp-Glu-Val-Asp-FMK) (peptide)
peptide: Cbz-DEVD-CH2F
SMILES: CC(C)[C@H](NC(=O)[C@H](CCC(=O)O)NC(=O)[C@H](CC(=O)O)NC(=O)OCc1ccccc1)C(=O)N[C@@H](CC(=O)O)C(=O)CF
IC50 for inhibition of 6-OHDA-induced DNA fragmentation (Cell Death Detection ELISA) in N27 cells (caspase-3 [4]): 18 µM
